Experiment [1] relates to Daudi (human B-lymphoblastoid cell from Burkitt's Lymphoma patient). As to the kind of experiment: Inhibition of cellular proliferation, Daudi cells (CellTiter-Glo). Type of experiment: cell-based. To be noted: EC50 measured as illustrated in Example 150 (CellTiter-Glo). How it is done:
(§1) The SupT1 cells were seeded in Costar (Tewksbury, Mass.) 3093 96 well tissue culture treated white walled/clear bottom plates. A nine point dose response dilution series from 10 uM to 1 nM was performed and cell viability was determined after four days as indicated using the CellTiter-Glo® assay (CTG; Promega, Madison, Wis., United States of America) following the manufacturer's recommendations. Plates were read on a BioTek (Winooski, Vt.) Syngergy2 multi-mode plate reader. The Relative Light Units (RLU) were plotted as a result of variable molar concentration and data was analyzed using Graphpad (LaJolla, Calif.) Prism 5 statistical software to determine the IC50 for each compound.
(§2) The compounds listed in Table 1 were tested for the inhibition of cellular proliferation using SupT1 (human T-cell lymphoblastic leukemia) and Daudi (human B-lymphoblastoid cell from Burkitt's Lymphoma patient).
On the technique in general: In ATP-based viability assays light output follows the ATP content of the culture.

Experiment [2] deals with SupT1 cells (human T-cell lymphoblastic leukemia). The experiment is described as follows: Inhibition of cellular proliferation, SupT1 cells (CellTiter-Glo). The experiment is classed as cell-based. To be noted: SUP-T1, 96 h, cell viability after four days, nine point dilution series 10 uM to 1 nM. How it is done:
as §1, §2

Regarding `C[C@@H]1CN(c2ccc(Nc3ncc4cc5n(c4n3)C3(CCCCC3)CNC5=O)nc2)CCN1` [V], the figures for the EC50 in experiment [1] and in experiment [2] were 194 nM and 35 nM, respectively. For `CC(C)N1CCN(c2ccc(Nc3ncc4cc5n(c4n3)C3(CCCC3)CNC5=O)nc2)CC1C` (stereo not shown) [GGG], in that order: 586 nM and 161 nM. The matching figures for `CN(C)C1CCN(c2ccc(Nc3ncc4cc5n(c4n3)C3(CCCC3)CNC5=O)nn2)CC1` [TTT]: 3300 nM and 587 nM. As to `C[C@@H]1CN(c2ccc(Nc3ncc4cc5n(c4n3)C3(CCCCC3)CNC5=O)nc2)CCN1C` [NN], the concentration giving a half-maximal response (EC50) in experiment [1] came out at 1040 nM; in experiment [2], 84 nM. With `CC1CN(c2ccc(Nc3ncc4cc5n(c4n3)C3(CCCC3)CNC5=O)nc2)CCN1CC1CC1` (stereo not shown) [NNN], the EC50 came to 519 nM in experiment [1] and 160 nM in experiment [2]. For `C[C@@H]1CN(c2ccc(Nc3ncc4cc5n(c4n3)C3(CCCCC3)CNC5=O)nc2)C[C@H](C)N1CCC(C)(C)C` [M], in that order: 1460 nM and 184 nM. In the case of `CC(C)N1CCN(c2ccc(Nc3ncc4cc5n(c4n3)C3(CCCCC3)CNC5=O)nc2)CC1` [GG], the EC50 in experiment [2] turned out to be 57 nM. As to `CN1CCN(c2ccc(Nc3ncc4cc5n(c4n3)C3(CCCCC3)CNC5=O)nc2)CC1(C)C` [D], the 50% effective concentration (EC50) in experiment [1] is 297 nM; in experiment [2], 55 nM. For `CC(C)N1CCN(c2ccc(Nc3ncc4cc5n(c4n3)C3(CCCC3)CNC5=O)nn2)CC1` [RRR], in that order: 2010 nM and 278 nM. In the case of `CC1(C)CN(c2ccc(Nc3ncc4cc5n(c4n3)C3(CCCCC3)CNC5=O)nc2)CCN1` [I], the figures for the 50% effective concentration (EC50) in experiment [1] and in experiment [2] were 249 nM and 39 nM, respectively. The matching figures for `CN1CCN(C(=O)c2ccc(Nc3ncc4cc5n(c4n3)C3(CCCC3)CNC5=O)nc2)CC1` [BBB]: 758 nM and 41 nM. The matching figures for `CC(C)N1CCN(c2ccc(Nc3ncc4cc5n(c4n3)C3(CCCCC3)CNC5=O)nc2)CC1C` (stereo not shown) [PP]: 260 nM and 81 nM. With `C[C@H]1CN(c2ccc(Nc3ncc4cc5n(c4n3)C3(CCCCC3)CNC5=O)nc2)CCN1CC1CC1` [B], the EC50 was found to be 385 nM in experiment [1] and 96 nM in experiment [2]. In the case of `O=C1NCC2(CCCCC2)n2c1cc1cnc(Nc3ccc(N4CCC(N5CCC(C(F)(F)F)CC5)CC4)cn3)nc12` [X], the figures for the concentration for a half-maximal effect (EC50) in experiment [1] and in experiment [2] were 318 nM and 36 nM, respectively.

`C[C@@H]1CN(c2ccc(Nc3ncc4cc5n(c4n3)C3(CCCC3)CNC5=O)nc2)C[C@H](C)N1` [DDD]: the EC50 in experiment [1] amounted to 839 nM; in experiment [2], 161 nM.

For the compound `CN1CCN(c2ccc(Nc3ncc4cc5n(c4n3)C3(CCCC3)CNC5=O)nc2)CC1` [ZZ], the EC50 in experiment [1] stood at 584 nM; in experiment [2], 272 nM.

On to `CC(C)C[C@@H]1CNC(=O)c2cc3cnc(Nc4ccc(N5CCN(C)CC5)cn4)nc3n21` [XXX], for which the 50% effective concentration (EC50) in experiment [1] was determined as 1170 nM; in experiment [2], 270 nM. The matching figures for `CC1(C)CN(c2ccc(Nc3ncc4cc5n(c4n3)C3(CCCCC3)CNC5=O)nc2)CCN1C1CC1` [BB]: 472 nM and 70 nM. The matching figures for `C[C@H](O)CN1CCN(c2ccc(Nc3ncc4cc5n(c4n3)C3(CCCCC3)CNC5=O)nc2)C[C@@H]1C` [C]: 373 nM and 74 nM. With `CC(C)C1CN(c2ccc(Nc3ncc4cc5n(c4n3)C3(CCCCC3)CNC5=O)nc2)CCN1` (stereo not shown) [E], the EC50 in experiment [1] turned out to be 140 nM; in experiment [2], 9.3 nM. The matching figures for `CCC(C)CN1[C@H](C)CN(c2ccc(Nc3ncc4cc5n(c4n3)C3(CCCC3)CNC5=O)nc2)C[C@@H]1C` (stereo partly shown) [JJJ]: 448 nM and 143 nM. Take `CC(C)[C@H]1CNC(=O)c2cc3cnc(Nc4ccc(N5CCNCC5)cn4)nc3n21` [UUU]: the concentration for a half-maximal effect (EC50) in experiment [1] stood at 1420 nM; in experiment [2] it was 311 nM. For `C[C@@H]1CN(c2ccc(Nc3ncc4cc5n(c4n3)C3(CCCCC3)CNC5=O)nc2)CCN1C[C@@H](C)O` [J], in that order: 362 nM and 47 nM. The matching figures for `CN(C)C1CCN(c2ccc(Nc3ncc4cc5n(c4n3)C3(CCCCC3)CNC5=O)nc2)CC1` [O]: 123 nM and 44 nM.

As for `CC(C)(O)CN1CCN(c2ccc(Nc3ncc4cc5n(c4n3)C3(CCCC3)CNC5=O)nc2)CC1` [EEE], the EC50 in experiment [1] turned out to be 475 nM; in experiment [2], 65 nM.

For `CN1CCN(c2ccc(Nc3ncc4cc5n(c4n3)C3(CCCCC3)CNC5=O)nc2)CC1` [T], the figures for the EC50 in experiment [1] and in experiment [2] were 392 nM and 113 nM, respectively. `O=C1NCC2(CCCCC2)n2c1cc1cnc(Nc3ccc(N4CCC(N5CCOCC5)CC4)cn3)nc12` [U]: the concentration giving a half-maximal response (EC50) came out at 363 nM in experiment [1] and 48 nM in experiment [2]. For `CCC(C)CN1CCN(c2ccc(Nc3ncc4cc5n(c4n3)C3(CCCC3)CNC5=O)nc2)CC1` (stereo not shown) [AAA], in that order: 3340 nM and 15 nM. With `O=C1NCC2(CCCC2)n2c1cc1cnc(Nc3ccc(N4CCC(N5CCOCC5)CC4)cn3)nc12` [WW], the EC50 in experiment [1] was found to be 1690 nM; in experiment [2], 77 nM. For `CC1(C)CN(c2ccc(Nc3ncc4cc5n(c4n3)C3(CCCCC3)CNC5=O)nc2)CCN1CC1CC1` [H], in that order: 719 nM and 118 nM. For `CC1CN(c2ccc(Nc3ncc4cc5n(c4n3)C3(CCCCC3)CNC5=O)nc2)CCN1CC(C)(C)O` (stereo not shown) [W], in that order: 731 nM and 57 nM. The matching figures for `CC(C)N1CCN(c2ccc(Nc3ncc4cc5n(c4n3)C3(CCCC3)CNC5=O)nc2)CC1` [III]: 775 nM and 230 nM. Consider `CC(C)N1CCN(c2ccc(Nc3ncc4cc5n(c4n3)C3(CCCCC3)CNC5=O)nn2)CC1` [TT], for which the values for the concentration for a half-maximal effect (EC50) in experiment [1] and in experiment [2] were 589 nM and 92 nM, respectively. `C[C@H](O)CN1[C@H](C)CN(c2ccc(Nc3ncc4cc5n(c4n3)C3(CCCCC3)CNC5=O)nc2)C[C@@H]1C` [Z]: the results for the concentration for a half-maximal effect (EC50) in experiment [1] and in experiment [2] were 359 nM and 87 nM, respectively. As for `C[C@@H](O)CN1CCN(c2ccc(Nc3ncc4cc5n(c4n3)C3(CCCCC3)CNC5=O)nc2)CC1` [S], the figures for the EC50 in experiment [1] and in experiment [2] were 634 nM and 110 nM, respectively.

Regarding `CC(C)N1CCN(Cc2ccc(Nc3ncc4cc5n(c4n3)C3(CCCCC3)CNC5=O)nc2)CC1` [EE], the figures for the EC50 in experiment [1] and in experiment [2] were 259 nM and 89 nM, respectively. Regarding `CCN(CC)C1CCN(c2ccc(Nc3ncc4cc5n(c4n3)C3(CCCCC3)CNC5=O)nc2)C1` (stereo not shown) [QQ], the concentration for a half-maximal effect (EC50) came to 851 nM in experiment [1] and 68 nM in experiment [2]. For `O=C1NCC2(CCCCC2)n2c1cc1cnc(Nc3ccc(N4CCN(C5CCC5)CC4)cn3)nc12` [F], in that order: 692 nM and 107 nM.

As to `CC(C)N1CCN(c2ccc(Nc3ncc4cc5n(c4n3)C3(CCCCC3)CNC5=O)nc2)C[C@@H]1C` [AA], the EC50 amounted to 233 nM in experiment [1] and 58 nM in experiment [2]. With `CCN(CC)C1CCN(c2ccc(Nc3ncc4cc5n(c4n3)C3(CCCC3)CNC5=O)nc2)C1` (stereo not shown) [UU], the EC50 in experiment [1] amounted to 3160 nM; in experiment [2] it was 228 nM. For `C[C@@H](O)CN1CCN(c2ccc(Nc3ncc4cc5n(c4n3)C3(CCCC3)CNC5=O)nc2)C[C@@H]1C` [VV], in that order: 683 nM and 115 nM. For the compound `CCN(CC)C1CCN(c2ccc(Nc3ncc4cc5n(c4n3)C3(CCCC3)CNC5=O)nc2)CC1` [LLL], the EC50 is 1550 nM in experiment [1] and 241 nM in experiment [2]. For `O=C1NCC2(CCCC2)n2c1cc1cnc(Nc3ccc(N4CCOCC4)nn3)nc12` [SSS], in that order: > 3000 nM and 305 nM. The matching figures for `CCN(CC)C1CCN(C(=O)c2ccc(Nc3ncc4cc5n(c4n3)C3(CCCCC3)CNC5=O)nc2)C1` (stereo not shown) [JJ]: 389 nM and 49 nM.

As to `CN(C)C1CCN(c2ccc(Nc3ncc4cc5n(c4n3)C3(CCCC3)CNC5=O)nc2)CC1` [YY], the concentration giving a half-maximal response (EC50) was 356 nM in experiment [1] and 97 nM in experiment [2].

Consider `CC1CN(c2ccc(Nc3ncc4cc5n(c4n3)C3(CCCC3)CNC5=O)nc2)CC(C)N1CCC(C)(C)C` (stereo not shown) [PPP], for which the EC50 in experiment [2] stood at 3040 nM. Turning to `C[C@@H]1CN(c2ccc(Nc3ncc4cc5n(c4n3)C3(CCCCC3)CNC5=O)nc2)C[C@H](C)N1C` [DD], the values for the EC50 in experiment [1] and in experiment [2] were 546 nM and 105 nM, respectively. The matching figures for `O=C1NCC2(CCCCC2)n2c1cc1cnc(Nc3ccc(N4CCN(CC5CC5)CC4)cn3)nc12` [HH]: 681 nM and 79 nM. For `C[C@H]1CN(c2ccc(Nc3ncc4cc5n(c4n3)C3(CCCCC3)CNC5=O)nc2)CCN1` [KK], in that order: 147 nM and 112 nM.

In the case of `O=C1NCC2(CCCC2)n2c1cc1cnc(Nc3ccc(C(=O)N4CCN(CC5CC5)CC4)cn3)nc12` [OOO], the results for the EC50 in experiment [1] and in experiment [2] were 668 nM and 104 nM, respectively. For the compound `C[C@H]1CN(c2ccc(Nc3ncc4cc5n(c4n3)C3(CCCCC3)CNC5=O)nc2)CCN1C` [R], the figures for the half-maximal effective concentration (EC50) in experiment [1] and in experiment [2] were 299 nM and 43 nM, respectively.

In the case of `CCC(C)[C@@H]1CNC(=O)c2cc3cnc(Nc4ccc(N5CCNCC5)cn4)nc3n21` (stereo partly shown) [VVV], the concentration giving a half-maximal response (EC50) was 1070 nM in experiment [1] and 224 nM in experiment [2]. For `O=C1NCC2(CCCCC2)n2c1cc1cnc(Nc3ccc(N4CCC(N5CCCCC5)CC4)cn3)nc12` [N], in that order: 122 nM and 34 nM. The matching figures for `C[C@@H]1CN(c2ccc(Nc3ncc4cc5n(c4n3)C3(CCCCC3)CNC5=O)nc2)C[C@H](C)N1C[C@@H](C)O` [MM]: 681 nM and 84 nM.

What is called EC50 is the concentration giving half of the maximal effect. Low values mean an effect from little substance, high ones a need for much substance.

(Values after patent US10709711B2 (G1 Therapeutics, Inc., priority 2013, dated 2020).)
